Assay type in all cases: in vivo
The test system of assay [1] is guinea grass (Panicum maximum Jacq.). The assay is described as follows: Test Example 15: pot test, soil and foliar treatment, visual growth inhibition. To be noted: Megathyrsus maximus, 250 g/ha, 31st day after treatment, read-out: Growth inhibition rate (%) of guinea grass Measured value. The method, then:
Upland field soil was put into a 1/1,000,000 ha pot, and seeds of guinea grass (Panicum maximum Jacq.) were sown. When the guinea grass reached 5.2 to 6.0-leaf stage, seeds of guinea grass were further sown in the same pot assuming conditions such that weeds would later grow. On the next day, predetermined amounts of ONEHOPE NYUZAI (tradename), Click (tradename), Spectrum (tradename) and Cadou (tradename) were diluted with water in an amount corresponding to 300 L/ha and applied for soil treatment and for foliar treatment by a small sprayer.
On the 31 st day after treatment, the state of growth of the guinea grass was visually observed to determine the growth inhibition rate (%). The growth inhibition rate (%) (measured value) and the growth inhibition rate (%) calculated in the same manner as in the above Test Example 1 are shown in Table 15.

For assay [2], the system named is common cocklebur (Xanthium strumarium L.). Kind of assay: Test Example 12: pot test, foliar treatment, visual growth inhibition. The conditions noted are these: 250 g/ha, foliar treatment at 4.2 to 4.3-leaf stage, 28th day after treatment, read-out: Growth inhibition rate (%) of common cocklebur Measured value. Here is the method: Upland field soil was put into a 1/1,000,000 ha pot, and seeds of common cocklebur (Xanthium strumarium L.) were sown. When the common cocklebur reached 4.2 to 4.3-leaf stage, predetermined amounts of ONEHOPE NYUZAI (tradename), Click (tradename) and water dispersible granules containing flufenacet as an active ingredient (tradename: Cadou, manufactured by Bayer CropScience) were diluted with water (in an amount corresponding to 1,000 L/ha) and applied for foliar treatment by a small sprayer.
On the 28th day after treatment, the state of growth of the common cocklebur was visually observed to determine the growth inhibition rate (%). The growth inhibition rate (%) (measured value) and the growth inhibition rate (%) calculated in the same manner as in the above Test Example 1 are shown in Table 12.

In assay [3] the test system is Japanese millet (Echinochloa utilis Ohwi et Yabuno). The assay is described as follows: Test Example 5: pot test, soil treatment, visual growth inhibition. To be noted: soil, read-out: Growth inhibition rate (%) of Japanese millet Measured value. The method, then:
Upland field soil was put into a 1/300,000 ha pot, and seeds of Japanese millet (Echinochloa utilis Ohwi et Yabuno) were sown. On the next day, predetermined amounts of ONEHOPE NYUZAI (tradename), Click (tradename) and SC formulation containing topramezone as an active ingredient (tradename: Clio, manufactured by BASF) were diluted with water (in an amount corresponding to 1,000 L/ha) and applied for soil treatment by a small sprayer.
On the 28th day after treatment, the state of growth of the Japanese millet was visually observed to determine the growth inhibition rate (%). The growth inhibition rate (%) (measured value) and the growth inhibition rate (%) calculated in the same manner as in the above Test Example 1 are shown in Table 5.

Assay [4] concerns prickly sida (Sida spinosa L.). The assay is described as follows: Test Example 10: pot test, soil treatment, visual growth inhibition. The conditions noted are these: read-out: Growth inhibition rate (%) of prickly sida Measured value. Here is the method:
Upland field soil was put into a 1/300,000 ha pot, and seeds of prickly sida (Sida spinosa L.) were sown. On the next day, predetermined amounts of ONEHOPE NYUZAI (tradename), Click (tradename), Spectrum (tradename), Callisto (tradename) and Clio (tradename) were diluted with water (in an amount corresponding to 1,000 L/ha) and applied for soil treatment by a small sprayer.
On the 28th day after treatment, the state of growth of the prickly sida was visually observed to determine the growth inhibition rate (%). The growth inhibition rate (%) (measured value) and the growth inhibition rate (%) calculated in the same manner as in the above Test Example 1 are shown in Table 10.

For assay [5], the system named is velvetleaf (Abutilon theophrasti Medic.). Kind of assay: Test Example 16: pot test, soil and foliar treatment, visual growth inhibition. To be noted: read-out: Growth inhibition rate (%) of velvetleaf Measured value. An excerpt: (§1) Upland field soil was put into a 1/1,000,000 ha pot, and seeds of velvetleaf (Abutilon theophrasti Medic.) were sown. When the velvetleaf reached 4.0 to 4.3-leaf stage, seeds of velvetleaf were further sown in the same pot assuming conditions such that weeds would later grow. Three days later, predetermined amounts of ONEHOPE NYUZAI (tradename), Click (tradename), Callisto (tradename), Mikado (tradename), a wettable powder containing bicyclopyrone as an active ingredient and Clio (tradename) were diluted with water in an amount corresponding to 300 L/ha and applied for soil treatment and for foliar treatment by a small sprayer.
On the 29th day after treatment, the state of growth of the velvetleaf was visually observed to determine the growth inhibition rate (%). The growth inhibition rate (%) (measured value) and the growth inhibition rate (%) calculated in the same manner as in the above Test Example 1 are shown in Table 16.

The subject of assay [6] is rostrate sesbania (Sesbania rostrata Bremek. & Oberm.). The assay is described as follows: Test Example 8: pot test, soil treatment, visual growth inhibition. The conditions noted are these: soil, read-out: Growth inhibition rate (%) of rostrate sesbania Measured value. The method, then: Upland field soil was put into a 1/300,000 ha pot, and seeds of rostrate sesbania (Sesbania rostrata Bremek. & Oberm.) were sown. On the next day, predetermined amounts of ONEHOPE NYUZAI (tradename), Click (tradename), Spectrum (tradename) and Clio (tradename) were diluted with water (in an amount corresponding to 1,000 L/ha) and applied for soil treatment by a small sprayer.
On the 28th day after treatment, the state of growth of the rostrate sesbania was visually observed to determine the growth inhibition rate (%). The growth inhibition rate (%) (measured value) and the growth inhibition rate (%) calculated in the same manner as in the above Test Example 1 are shown in Table 8.

Assay [7] concerns velvetleaf (Abutilon theophrasti Medic.). The assay is described as follows: Test Example 14: pot test, soil and foliar treatment, visual growth inhibition. The conditions noted are these: read-out: Growth inhibition rate (%) of velvetleaf Measured value.
Excerpt: as §1, with “On the next day,” for “Three days later,”
On the 31 st day after treatment, the state of growth of the velvetleaf was visually observed to determine the growth inhibition rate (%). The growth inhibition rate (%) (measured value) and the growth inhibition rate (%) calculated in the same manner as in the above Test Example 1 are shown in Table 14.

The test system of assay [8] is green foxtail (Setaria viridis (L.) P.Beauv.). Kind of assay: Test Example 3: pot test, soil treatment, visual growth inhibition. The conditions noted are these: soil, read-out: Growth inhibition rate (%) of green foxtail Measured value. Here is the method:
Upland field soil was put into a 1/1,000,000 ha pot, and seeds of green foxtail (Setaria viridis (L.) P.Beauv.) were sown. On the next day, predetermined amounts of ONEHOPE NYUZAI (tradename), Click (tradename) and SC formulation containing sulcotrione as an active ingredient (tradename: Mikado, manufactured by Bayer CropScience) were diluted with water (in an amount corresponding to 1,000 L/ha) and applied for soil treatment by a small sprayer.
On the 27th day after treatment, the state of growth of the green foxtail was visually observed to determine the growth inhibition rate (%). The growth inhibition rate (%) (measured value) and the growth inhibition rate (%) calculated in the same manner as in the above Test Example 1 are shown in Table 3.

Assay [9] concerns korean lespedeza (Kummerowia stipulacea (Maxim.) Makino). The assay is described as follows: Test Example 6: pot test, soil treatment, visual growth inhibition. The conditions noted are these: soil, read-out: Growth inhibition rate (%) of korean lespedeza Measured value. Here is the method: Upland field soil was put into a 1/300,000 ha pot, and seeds of korean lespedeza (Kummerowia stipulacea (Maxim.) Makino) were sown. On the next day, predetermined amounts of ONEHOPE NYUZAI (tradename), Click (tradename), Mikado (tradename) and a wettable powder containing bicyclopyrone prepared in accordance with a conventional formulation method were diluted with water (in an amount corresponding to 1,000 L/ha) and applied for soil treatment by a small sprayer.
On the 14th day after treatment, the state of growth of the korean lespedeza was visually observed to determine the growth inhibition rate (%). The growth inhibition rate (%) (measured value) and the growth inhibition rate (%) calculated in the same manner as in the above Test Example 1 are shown in Table 6.

Assay [10] deals with Japanese millet (Echinochloa utilis Ohwi et Yabuno). The assay is described as follows: Test Example 9: pot test, soil treatment, visual growth inhibition. To be noted: soil, read-out: Growth inhibition rate (%) of Japanese millet Measured value. The method, then:
Upland field soil was put into a 1/300,000 ha pot, and seeds of Japanese millet (Echinochloa utilis Ohwi et Yabuno) were sown. On the next day, predetermined amounts of ONEHOPE NYUZAI (tradename), Click (tradename), Mikado (tradename) and a wettable powder containing bicyclopyrone prepared in accordance with a conventional formulation method were diluted with water (in an amount corresponding to 1,000 L/ha) and applied for soil treatment by a small sprayer.
On the 28th day after treatment, the state of growth of the Japanese millet was visually observed to determine the growth inhibition rate (%). The growth inhibition rate (%) (measured value) and the growth inhibition rate (%) calculated in the same manner as in the above Test Example 1 are shown in Table 9.

The test system of assay [11] is annual ragweed (Ambrosia artemisiifolia L.). The assay is described as follows: Test Example 11: pot test, soil treatment, visual growth inhibition. The conditions noted are these: soil, read-out: Growth inhibition rate (%) of annual ragweed Measured value. The method, then: Upland field soil was put into a 1/300,000 ha pot, and seeds of annual ragweed (Ambrosia artemisiifolia L.) were sown. On the next day, predetermined amounts of ONEHOPE NYUZAI (tradename), Click (tradename), Mikado (tradename) and a wettable powder containing bicyclopyrone prepared in accordance with a conventional formulation method were diluted with water (in an amount corresponding to 1,000 L/ha) and applied for soil treatment by a small sprayer.
On the 28th day after treatment, the state of growth of the annual ragweed was visually observed to determine the growth inhibition rate (%). The growth inhibition rate (%) (measured value) and the growth inhibition rate (%) calculated in the same manner as in the above Test Example 1 are shown in Table 11.

The subject of assay [12] is sunn-hemp (Crotalaria juncea L.). The assay is described as follows: Test Example 7: pot test, soil treatment, visual growth inhibition. To be noted: soil, read-out: Growth inhibition rate (%) of sunn-hemp Measured value. Here is the method: Upland field soil was put into a 1/300,000 ha pot, and seeds of sunn-hemp (Crotalaria juncea L.) were sown. On the next day, predetermined amounts of ONEHOPE NYUZAI (tradename), Click (tradename), Mikado (tradename) and a wettable powder containing bicyclopyrone prepared in accordance with a conventional formulation method were diluted with water (in an amount corresponding to 1,000 L/ha) and applied for soil treatment by a small sprayer.
On the 28th day after treatment, the state of growth of the sunn-hemp was visually observed to determine the growth inhibition rate (%). The growth inhibition rate (%) (measured value) and the growth inhibition rate (%) calculated in the same manner as in the above Test Example 1 are shown in Table 7.

The subject of assay [13] is wild oat (Avena fatua L.). Kind of assay: Test Example 2: pot test, soil treatment, visual growth inhibition. To be noted: 50 g/ha, 28th day after treatment, read-out: Growth inhibition rate (%) of wild oat Measured value. The method, then: Upland field soil was put into a 1/500,000 ha pot, and seeds of wild oat (Avena fatua L.) were sown. On the next day, predetermined amounts of ONEHOPE NYUZAI (tradename), Click (tradename) and SC formulation containing mesotrione as an active ingredient (tradename: Callisto, manufactured by Syngenta) were diluted with water (in an amount corresponding to 1,000 L/ha) and applied for soil treatment by a small sprayer.
On the 28th day after treatment, the state of growth of the wild oat was visually observed to determine the growth inhibition rate (%). The growth inhibition rate (%) (measured value) and the growth inhibition rate (%) calculated in the same manner as in the above Test Example 1 are shown in Table 2.

The text below walks through data of EP2832223A1, “HERBICIDAL COMPOSITION” (Ishihara Sangyo Kaisha, Ltd., priority 2012, dated 2013).

In general, inhibition refers to how much of the control response was suppressed. Consider `CC(C)N(C(=O)COc1nnc(C(F)(F)F)s1)c1ccc(F)cc1` [Flufenacet, 4'-fluoro-N-isopropyl-2-[5-(trifluoromethyl)-1,3,4-thidiazol-2-yloxy]acetanilide], for which the inhibition at 250 g/ha in [1] was 50%; in assay [2] it was 0%.

As to `Cc1c(C(=O)c2cnn(C)c2O)ccc(S(C)(=O)=O)c1C1=NOCC1` [Topramezone, [3-(4,5-dihydro-1,2-oxazol-3-yl)-4-mesyl-o-tolyl](5-hydroxy-1-methylpyrazol-4-yl)methanone], the inhibition at 40 g/ha in [3] was determined as 30%. The inhibition at 10 g/ha in assay [4] (soil) is 0%; in [7], 8%. Besides, in assay [5], the inhibition at 20 g/ha was 50%. Besides, the inhibition at 100 g/ha in [6] amounted to 80%. Moreover, the inhibition at 60 g/ha in assay [7] worked out at 65%.

Take `CS(=O)(=O)c1ccc(C(=O)C2C(=O)CCCC2=O)c(Cl)c1` [Sulcotrione, 2-(2-chloro-4-mesylbenzoyl)cyclohexane-1,3-dione]: the inhibition at 200 g/ha in assay [5] was 88%. In addition, the inhibition at 300 g/ha in assay [8] was 5%; in assay [7] it was 90%. In addition, the inhibition at 1000 g/ha in [9] stood at 15%. In addition, the inhibition at 50 g/ha was 20% in [10] and 10% in [12]. In assay [11], the inhibition at 2000 g/ha turned out to be 85%. Besides, in assay [7], the inhibition at 100 g/ha was determined as 88%.

As to `CS(=O)(=O)c1ccc(C(=O)C2C(=O)CCCC2=O)c([N+](=O)[O-])c1` [Mesotrione, 2-(4-mesyl-2-nitrobenzoyl)cyclohexane-1,3-dione], the inhibition at 50 g/ha in [13] came to 0%; in assay [7] (50 g/ha, soil treatment and foliar treatment, 31st day after treatment) it was 91%. Further, in assay [4] (25 g/ha, soil treatment, 28th day after treatment), the inhibition at 25 g/ha was found to be 25%. The inhibition at 75 g/ha in assay [5] (75 g/ha, soil treatment and foliar treatment, 29th day after treatment) amounted to 89%. In addition, the inhibition at 120 g/ha in assay [7] (120 g/ha, soil treatment and foliar treatment, 31st day after treatment) was 93%.
